Patent publication US11339193B2, “CDP protein secretion inhibitors” (KEZAR LIFE SCIENCES, priority 2018, dated 2022)
Where two headings read alike, the source gives them in different places. Peptide text beside a SMILES is read from it.

Tests used:
Assay type in all cases: cell-based
[1] = system: PD1-ss+10aa/Gaussia Luciferase; test: Dox induced PD1-ss-Gluc assay; settings: Flp-In 293 T-REx cells, doxycycline, 24 hours; read-out: PD1ss Gluc IC50
Procedure, shortened: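 Stable Flp-In 293 T-REx line expressing doxycycline-inducible Gaussia luciferase fused to the PD1 signal sequence plus 10 amino acids. Cells plated the day before, then exposed to compound dilutions in DMSO/media containing doxycycline at 37 °C, 5% CO2.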

[2] = system: VCAMss+10aa/Gaussia Luciferase; test: VCAM-ss-Gluc assay (constitutively active or Dox induced); settings: Flp-In 293 T-REx cells, 24 hours
Procedure, shortened: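 Stable cell lines secreting a VCAM signal sequence+10aa/Gaussia luciferase fusion, expressed either constitutively or under T-REx doxycycline control. Cells plated the day before; compound dilutions in DMSO/media (with doxycycline for the induced line) added and incubated at 37° C, 5% CO2.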

[3] = system: BT474 breast tumor cell line; test: BT474 assay (Alamar blue); settings: Homo sapiens, BT-474, 72 h
Procedure, shortened: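 For both lines, 5000 cells/well were exposed to compound or a 1% DMSO-medium control for 72 h unless otherwise specified. Signal was normalized to the DMSO control.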

[4] = system: U266B1 multiple myeloma cell line; test: U266 assay (cell viability, Celltiter-Glo); settings: Homo sapiens, U-266; 48 hours, cell viability
Method: Cells were plated in 384-well tissue culture plates and treated with compound dilutions in DMSO/media. Plates were incubated at 37° C., 5% CO2 for 48 hours. After 48 hours, Celltiter-Glo@ (Promega) was added to each well and luciferase signal was quantified using Tecan Infinite M1000 Pro for cell viability determination.

[5] = system: IL7Rss-Gluc; test: IL7Rss assay
Method: The mature domain of secreted luciferase from Gaussia princeps (GLuc) was cloned into pcDNA5/FRT/TO. The signal sequence plus four amino acids of the mature domain from IL7R ([…]) (SEQ ID NO:6) were cloned upstream of GLuc mature domain and used in transient transfection experiment. HEK-293T T-rex cells were cultured in Dulbecco's modified Eagle's medium with 10% FBS at 5% CO2. Cells were plated 1×10e6 cells per well in a 6-well plate and incubated for 6 h. Cells were transiently transfected with IL7Rss-Gluc using Lipofectamine 2000 (Invitrogen). After overnight incubation, transfected cells were replated in a clear-bottomed, black 96-well plate at a density of 20,000 cells per well. Six hours after plating, the cells were treated with doxycycline (1 μg/ml) and increasing concentrations of the indicated compounds for 24 h. Secreted luciferase in the conditioned media was quantified by luminescence using the BioLux Gaussia Luciferase Assay Kit (New England Biolabs, Ipswich, Mass., USA) and a SpectraMax M5 plate reader (Molecular Devices).

[6] = system: FLT3ss-Gluc; test: FLT3ss assay
Method: The mature domain of secreted luciferase from Gaussia princeps (GLuc) was cloned into pcDNA5/FRT/TO. The signal sequence plus four amino acids of the mature domain from FLT3 ([…]) (SEQ ID NO:7) were cloned upstream of GLuc mature domain and used in transient transfection experiment.
HEK-293T T-rex cells were cultured in Dulbecco's modified Eagle's medium with 10% FBS at 5% CO2. Cells were plated 1×10e6 cells per well in a 6-well plate and incubated for 6 h. Cells were transiently transfected with FLT3ss-Gluc using Lipofectamine 2000 (Invitrogen). After overnight incubation, transfected cells were replated in a clear-bottomed, black 96-well plate at a density of 20,000 cells per well. Six hours after plating, the cells were treated with doxycycline (1 μg/ml) and increasing concentrations of the indicated compounds for 24 h. Secreted luciferase in the conditioned media was quantified by luminescence using the BioLux Gaussia Luciferase Assay Kit (New England Biolabs, Ipswich, Mass., USA) and a SpectraMax M5 plate reader (Molecular Devices).

IC50 ([5]; HEK-293T T-rex cells, transient transfection, doxycycline, 24 h; read-out: IL7Rss IC50) [nM]	IC50 ([6]; HEK-293T T-rex cells, transient transfection, doxycycline, 24 h; read-out: FLT3ss IC50) [nM]	Structure (SMILES)	IC50 [1] [nM]	IC50 [2] [nM]	EC50 [3] [nM]	EC50 [4] [nM]	IC50 ([5]; read-out: IL7Rss IC50; HEK-293T T-rex cells, transient transfection, doxycycline, 24 h) [nM]	IC50 ([6]; read-out: FLT3ss IC50; HEK-293T T-rex cells, transient transfection, doxycycline, 24 h) [nM]
10	32	CC(C)C[C@@H]1NC(=O)[C@H](Cc2cn(Cc3ccccc3)c3ccccc23)N(C)C(=O)[C@H](CC(C)C)NC(=O)[C@H](CC(C)C)N(C)C(=O)[C@H](CC(C)C)NC(=O)[C@@H](CCC#N)OC(=O)[C@H](C)N(C)C1=O [C-16] (HELM PEPTIDE1{L.[meA].[N#CCC[C@@H](O[*:1])C(=O)[*:2]].L.[meL].L.[CN([C@@H](Cc1cn(Cc2ccccc2)c2ccccc12)C(=O)[*:2])[*:1]]}$PEPTIDE1,PEPTIDE1,1:R1-7:R2$$$V2.0)	27	82	745	13400	–	–
–	–	C#CC[C@H]1OC(=O)[C@H](C)N(C)C(C)[C@H](C[C@H](C)CCCC)NC(=O)[C@H](Cc2ccccc2)N(C)C(=O)[C@H](CC(C)C)NC(=O)[C@H](CC(C)C)N(C)C(=O)[C@H](C[C@H](C)CCCC)NC1=O (stereo partly drawn) [C-01]	56	15	730	23500	23	52
